Measured values taken from patent US9566265B2, “Carbazole compounds and therapeutic uses of the compounds” (Incuron, LLC, priority 2008, dated 2017).
Where two headings read alike, the source gives them in different places.

Tests used:
γH2AX = γH2AX staining (Table I); format: cell-based
ATM/ATR = ATM/ATR activation (Table I); format: cell-based
Chk1/2 = Chk1/2 phosphorylation (Table I); format: cell-based
Topo II [1] = experiment: Topo II inhibition in vitro (Table I); format: biochemical
p53 = p53 activation assay, p53 responsive luciferase reporter cell line; format: cell-based, human; settings: Homo sapiens
Description: The potency of a present carbazole compound is determined by measuring an ability of the compound to inhibit NF-κB activity or to activate p53. […] Theoretically, such assays of the dose-response effect of activator compounds can be described as a sigmoidal curve expressing a degree of activation as a function of concentration. The curve also theoretically passes through a point at which the concentration is sufficient to increase activity to a level that is 50% that of the difference between a baseline and the maximal activity in the assay. […] Determination of an EC50 value is made using conventional biochemical (acellular) assay techniques or cell-based assay techniques.
The potency of a carbazole compound is determined by measuring an ability of the compound to activate p53.
The p53 activation assay for determination of the EC50 value was performed as follows:
HT1080-L (human fibrosarcoma cells with ConALuc reporter)
RCC45ConALuc (human renal cell carcinoma cell line with ConALuc reporter)
1. Two types of standard cells were used, either HT1080-L or RCC45ConALuc cells. Both cell lines stably express a p53 responsive luciferase reporter construct.
2. HT1080-L cells were grown in DMEM medium containing 10% FBS. RCC45ConALuc cells were grown in RPMI medium containing 10% FBS (Pen/Strep can be added to a final concentration of 1%, if desired). Both cell lines were grown in a humidified incubator at 37° C. with 5% CO2. For normal culturing, both cell lines were split using 1× trypsin-EDTA at a ratio of 1:20 for HT1080-L and 1:5 for RCC45ConALuc cells every 3-4 days (when cells are 80-90% confluent).
3. A day before the experiment, the cells are trypsinized for about 5 minutes in 1× tripsin/EDTA solution in 37° C. incubator and plated in 96 well plates. HT1080-L cells were seeded at a density of 1×10^4/well in standard DMEM medium in a volume of 50 μl. RCC45ConALuc were seeded at a density of 2×10^4/well in the volume of 50 uL in standard RPMI medium.
4. The next day, various carbazole compounds were prepared by dilution of stock solutions in standard DMEM medium such that the cells were treated with the final chemical concentrations in Table 1 below. Stock solutions were made up in DMSO. Typically, chemicals were made up as 20 mM stock solutions.
5. Each tested compound used two rows of a 96-well plate, thus four compounds (e.g., W, X, Y, Z) were tested in one plate simultaneously. In addition to test compounds, each plate included positive and negative controls. As positive control, 9aa was used at a dose of 3 μM. As a negative control, DMSO was used in final concentration 0.1%.
1. Dilutions of chemicals added to the plate were made up as 2× concentrations in standard DMEM and added to corresponding well in a volume of 50 μl.
2. Chemicals were diluted in standard DMEM by two time serial dilutions starting from 40 μM (2× of highest concentration, e.g., 20 μM). For one cell line, the minimum volume was 125 μL of 2× working solution of chemical of each concentration in standard DMEM.
4. Sixteen hours following compound addition, all wells with the highest concentrations of compounds are checked microscopically for the presence of toxic effect, because death of cells caused by compounds may not allow detecting luciferase activity. If cytotoxocity is evident, other doses of the same compounds were checked for the presence of toxicity. The lowest dose causing toxic effect was recorded.
5. After microscopic examination, 15 μl of Bright Glo luciferase assay system were added to each well and after 5 min incubation at RT, the plates were read on a 96 well plate luminometer with a measurement time of 0.1 sec. A shaking step was included before measurement.
6. The folds of luciferase activation for each concentration of each chemical were calculated by dividing the detected luciferase activity at each chemical concentration by the average of the luciferase activity for the DMSO control on the same plate.

Bloodstream T. brucei = experiment: T. brucei bloodstream form in vitro killing; format: cell-based, Trypanosoma brucei
Description: Preliminary T. brucei inactivation experiments were performed in vitro. The life cycle of T. brucei involves a “procyclic” developmental stage in a tsetse fly, and a “bloodstream” form in humans. All studies were performed with the bloodstream stage of the parasite, because it is the disease-causing developmental stage.
Suramin, a conventional anti-HAT drug, was used as a positive control.
Bloodstream T. brucei was seeded (3×10^3 cells/mL) in 24-well (500 uL of the media per well) plate. […] Control cultures received equal volumes of DMSO.

Bacillus subtilis = experiment: antibacterial cytotoxicity assay, gram(+) bacteria (OD600); format: cell-based; settings: B. subtilis, 48 hours, over a range of potencies; FIG. 13B
Description: In vitro test to evaluate the effect of carbazole compounds on gram(-) and gram(+) bacteria. Two days prior to the start of the cytotoxicity assay, inoculate DH5-α and B. subtilis into 1 ml of corresponding media from glycerol stocks. Allow to grow during the course of the day at 37° C. with shaking. Streak each bacteria on the appropriate agar plates using a sterile inoculation loop and allow to grow overnight at 37° C. in the bacteria incubator. Using a sterile inoculation loop, pick a single colony of bacteria and inoculate 5 ml of the corresponding media in a 14 ml snap cap tube. Grow overnight ( 16 h) at 37° C. with shaking. […] Dilute 5 ml cultures of DH5-α and B. subtilis to an OD600 nm of 0.002, which corresponds to about 2×10^6 cells/ml in a volume sufficient for the experiment (dependent on the number of plates). Plate out 50 μl into each well of X 96-well plates (X=# plates needed for a given experiment). […] Chemicals for testing are prepared by dilution of stock solutions in LB Broth or Nutrient Broth for DH5-α and B. subtilis studies, respectively. Cells are treated with the final chemical concentrations presented in the scheme below (Table 2). Stock solutions are made up in DMSO. […] However, this concentration is dependent on the solubility of a given chemical and actual stock concentrations must be noted at time of experiment. Each library chemical to be tested requires 2 rows of a 96-well plate, thus 4 chemicals ([…]) can be tested in one plate simultaneously. In addition to test chemicals, each plate should include positive and negative controls. As positive control, ampicillin is used at 100 μg/ml. […] Dilutions of chemicals to be added to the plate are made up as 2× concentrations in appropriate bacteria media and added to corresponding wells in a volume of 50 μl. […] This process is repeated until all 10 2× doses are prepared. […] Following the addition of carbazole compounds to 96-well plates containing bacteria, plates are transferred to the 37° C. bacteria incubator for 48 hours. After the incubation, the OD600 mm for each well of the 96-well plates will be measured. […] The % DMSO control is plotted vs compound concentration to generate sigmoid shaped curves. After three runs are complete, the raw data for all three runs is used for IC50 calculations.

HB 101 E. coli = experiment: antibacterial cytotoxicity assay, gram(−) bacteria (OD600); format: cell-based; settings: 48 hours, over a range of potencies, FIG. 13A
[2] = system: HCT-116, DLD1, Caki1 and MDA-MB-231 tumors; experiment: various human tumour xenografts sc; format: in vivo, nude or SCID mice; settings: tumor cells inoculated as a cell suspension
Description: (§1) In this study, the antitumor effect and toxicity of the three carbazoles against HCT-8 and HT29 colon cancer tumors were compared with treatment beginning when the tumor size reached 150-200 mg (about 7 days after tumor transplantation).

[3] = system: human HCT-8 ileocecal adenocarcinoma xenografts
Description: as §1
(§2) Eight to twelve-week-old female athymic nude mice (nu/nu, body weight 22-25 g) were obtained from Harlan Sprague Dawley Inc. (Indianapolis, Ind.) and maintained at five mice/cage with water and food ad libitum according to an institutionally approved animal protocol.
(§3) Human ileocecal adenocarcinoma HCT-8 and colon adenocarcinoma HT-29 xenografts were used. The xenografts were initially established by injecting s.c 10^6 cultured cells and tumors were passed several generations by transplanting about 50 mg non-necrotic tumor (2-3 pieces) via a trocar from the passage tumors when the tumors reach to 1-1.5 g.
(§4) Treatment was initiated 7 days after tumor transplantation when the tumors reached 150-200 mg. The mice in the control group received the vehicle (0.2% hydroxypropylmethylcellulose) at 200 μl per 20 g mouse body weight (same as the treatment groups). Five mice were used for each experimental group with 10 tumors (1 tumor each in the left and right side flanks).
(§5) Two axes (mm) of tumor (L, longest axis; W, shortest axis) were measured with the aid of a Vernier caliper. Tumor weight (mg) was estimated using a formula: tumor weight=½ (L×W2). Tumor measurements were taken daily at the same time as drug treatment and 3-4 times a week of post therapy.
(§6) The kinetics of drug-induced toxicities (body weight loss, diarrhea, and lethality) were determined daily for the first 10 days after treatment and every two days thereafter.
(§7) Antitumor activity was assessed by maximum tumor growth inhibition (MTRI) which is the mean tumor weight of treated group (MTWTG) compared with untreated control group (MTWCG) at the same time point (MTRI=MTWTG−MTWCG)÷MTWCG×100%). The tumor doubling time (TDT) was defined as the mean time for the tumor to reach twice its initial weight. Tumor response was expressed as partial tumor response (PR) when tumor weight was reduced at least 50% of the initial tumor size and complete tumor response (CR) was defined as the inability to detect tumor upon palpation at the initial site of tumor appearance.

[4] = system: human HT-29 colon adenocarcinoma xenografts
Description: as §1, §2, §3, §4, §5, §6, §7

in vivo = settings: nude, mouse, po
Description: Drug doses and schedule. […] Treatment was initiated 7 days after tumor transplantation when the tumors reached 150-200 mg. The mice in the control group received the vehicle (0.2% hydroxypropylmethylcellulose) at 200 μl per 20 g mouse body weight (same as the treatment groups). Five mice were used for each experimental group with 10 tumors (1 tumor each in the left and right side flanks).
Maximum Tolerated Dose (MTD) and toxicity evaluation. […] The kinetics of drug-induced toxicities (body weight loss, diarrhea, and lethality) were determined daily for the first 10 days after treatment and every two days thereafter.

[5] = system: Caki1 human renal cell carcinoma cells; experiment: Caki1 renal cell carcinoma xenograft efficacy test
Description: In an efficacy test using these three compounds, athymic nude mice were inoculated subcutaneously with a suspension of Caki1 human renal cell carcinoma cells into both rear flanks. When at least one tumor in a mouse reached 20-50 mm^3, treatment was commenced. […] As a positive control, one group was treated with 40 mg/kg Sunitinib, an approved drug for the treatment of renal cell carcinoma. Treatment was given for 4 weeks on a 5 day on/2 day off schedule. After treatment was completed, mice were monitored for an additional 4 weeks to determine how quickly tumor growth returned to normal.

bacteria = experiment: antibacterial cytotoxicity assay, comparison with ampicillin control; format: cell-based
Description: In particular, the effect of carbazole compounds of the present invention on gram positive (Bacillus subtilis) and gram negative (DH5-α) bacteria was determined by the following procedure, and is summarized in FIGS. 13A and 13B.
Each library chemical to be tested requires 2 rows of a 96-well plate, thus 4 chemicals (e.g. W, X, Y, Z) can be tested in one plate simultaneously. In addition to test chemicals, each plate should include positive and negative controls. As positive control, ampicillin is used at 100 μg/ml. As a negative control, DMSO is used in an amount equal to the highest volume of test compound used (˜0.25% DMSO for 50 μM).
Besides a positive control added in one concentration on each plate, the positive control of ampicillin is added to each assay run in a full concentration range (3 fold dilutions) to ensure proper and robust assay performance (estimated by comparison of dose response curves among runs).
The average OD600 nm of the test compound solutions are compared to that of the DMSO control by dividing the average OD600 nm of the test solution by that of the DMSO control and multiplying by 100 to produce the % DMSO control (i.e. % cytotoxicity). The % DMSO control is plotted vs compound concentration to generate sigmoid shaped curves. After three runs are complete, the raw data for all three runs is used for IC50 calculations.

[6] = system: Plasmodium falciparum (strain D10); experiment: Plasmodium falciparum in vitro culture, infected erythrocytes; format: cell-based; settings: tested at 29, 57, 143 nM or 143 nM only; FIG. 12
Description: In particular, the effect of carbazole compounds on the malaria parasite was tested by culturing Plasmodium falciparum (strain D10) in vitro in the presence or absence of test compounds.
In each experiment, 1000 erythrocytes were assessed microscopically to determine the number of infected cells.

Topo II [7] = experiment: Topo II inhibition in cells (Table I); format: cell-based
[8] = 16 h, HT1080-L or RCC45ConALuc reporter cells, 16 h, read-out: EC50 value (p53 activation)
[9] = p.o. at MTD, 5 days on/2 days off per week, Example 15 5, Example 7 30, Example 13 25 mg/kg/d

CCN(CC)CCn1c2ccc3c(c2c2c4c(ccc21)C(=O)CC4)CCC3=O.Cl [Example 3, 6-[2-(Diethylamino)ethyl]-10,11-dihydro-1H-dicyclopenta[c,g]carbazole-3,9(2H,6H)-dione hydrochloride]
γH2AX staining (γH2AX): no
ATM/ATR activation (ATM/ATR): no
Chk1/2 phospho (Chk1/2): no
Topo II inhibition in vitro (Topo II [1]): ligation
Ames test (Ames test): negative

CCCNCCCn1c2ccc(C(C)=O)cc2c2c3c(ccc21)C(=O)CC3 [Example 13]
EC50 (p53; [8]): 0.22 µM
elimination of parasites (Bloodstream T. brucei; 48 hrs, up to 200 nM Example 7, 20 nM Example 13, 3 nM Example 15): completely eliminated T. brucei
IC50 (Bloodstream T. brucei; Trypanosoma brucei, read-out: IC50 (concentration that killed 50% of the parasites), bloodstream stage, 48 hrs of culture): 0.006 to 0.011 µM
antibacterial effect (Bacillus subtilis): antibacterial effect
antibacterial effect (HB 101 E. coli): antibacterial effect
antitumor efficacy [2]: antitumor efficacy
Toxicity (%) MWL ([3]; mouse, in vivo): 8.5 ± 2.9%
Antitumor Activity MTGI (%) [3, 9]: 35.7 ± 20.0%
Toxicity (%) lethality ([3]; same): 0%
CR (%) ([3]; same, complete tumor response): 0%
PR (%) ([3]; same, partial tumor response): 0%
Antitumor Activity TDT ([3]; same, tumor doubling time): 5.6 ± 1.2 days
delay of tumor growth compared to the vehicle control (double time 4.8 days) ([3]; text b677): 17%
delay of tumor growth (control double time 7.8 days) [4]: 50%
inhibitory rate / tumor growth inhibition [4]: 48%
Antitumor Activity MTGI (%) [4, 9]: 47.6 ± 6.7%
Toxicity (%) lethality ([4]; same): 0%
CR (%) ([4]; same, complete tumor response): 0%
Toxicity (%) MWL ([4]; same, maximum weight loss of pretreatment body weight): 4.4 ± 2.2%
PR (%) ([4]; same, partial tumor response): 0%
Antitumor Activity TDT ([4]; same, tumor doubling time): 11.7 ± 1.2 days
MTD at 4 weeks (in vivo): 25 mg/kg/day
tumor growth inhibition compared to the vehicle control ([5]; Day 24 (end of treatment), oral gavage 5 day on/2 day off, Example 7 30, Example 15 5, Example 13 25, Sunitinib 40 mg/kg): 62%
side effects ([5]; oral, 4 weeks 5 day on/2 day off): severest side effects

CC(C)NCCn1c2ccc3c(c2c2c4c(ccc21)C(=O)CC4)CCC3=O [Example 17]
EC50 (p53; [8]): 0.04 µM
antibacterial effect (Bacillus subtilis): antibacterial effect
antibacterial effect (HB 101 E. coli): antibacterial effect
effectiveness against bacteria compared with the ampicillin control (bacteria): more effective

CCNCCCn1c2ccc3c(c2c2c4c(ccc21)C(=O)CC4)CCC3=O.Cl [Example 18]
EC50 (p53; [8]): 0.09 µM
EC50 (p53; Table 3, test compounds of the malaria experiment, read-out: EC50, μM (p53 activation assay)): 0.09 µM
anti-malarial activity, parasitemia reduction [6]: anti-malarial activity comparable to quinacrine
antibacterial effect (Bacillus subtilis): antibacterial effect
antibacterial effect (HB 101 E. coli): antibacterial effect

COc1cccc2c1C(=O)c1c(O)c3c(c(O)c1C2=O)C[C@@](O)(C(=O)CO)C[C@@H]3O[C@H]1C[C@H](N)[C@H](O)[C@H](C)O1 [doxorubicin]
γH2AX staining (γH2AX): yes
ATM/ATR activation (ATM/ATR): yes
Chk1/2 phospho (Chk1/2): yes
Topo II inhibition in cells (Topo II [7]): yes
Topo II inhibition in vitro (Topo II [1]): relegation
Ames test (Ames test): negative
